For one assay, the system named is AGS (Gastric Carcinoma). The assay is described as follows: Bliss excess, mean over the matrix (fraction); higher = more synergy. The essentials:
(§1)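 After 24 hours at 37°C and 5% CO2 in 1536-well plates, cells in DMEM/F12 or RPMI plus 10% FBS received two-drug dose matrices for 72 hours. Viability came from CellTiter-Glo 2.0 luminescence and was scaled as inhibition, anchored at 0 by vehicle wells and at 1 by blank wells. Combination Emax is taken as the second-highest inhibition in the matrix, and Bliss excess as the observed combination effect less EA + EB − EA·EB, with EA and EB the single-agent effects.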

Assay [1] has as its system B-CPAP (Thyroid Gland Carcinoma). The assay is described as above. A digest of the protocol: as §1
Assay [2] concerns CAL-148 (Breast Carcinoma). The description is as above. The essentials:
as §1

Assay [3] deals with Calu-3 (Lung Adenocarcinoma). The description is as above. The essentials:
as §1

Assay [4] concerns DoTc2-4510 (Cervical Carcinoma). The description is as above. A digest of the protocol: as §1
The next assay has as its system ES4 (Ewing's Sarcoma). The assay is described as above. A digest of the protocol: as §1
For assay [5], the system named is HCC1806 (Breast Carcinoma). Described as above. The essentials:
as §1

Assay [6] has as its system HT-1376 (Bladder Carcinoma). Described as above. A digest of the protocol:
as §1

Assay [7] relates to KURAMOCHI (Ovarian Carcinoma). The description is as above. The essentials: as §1
Assay [8] concerns LNCaP-Clone-FGC (Prostate Carcinoma). The description is as above. A digest of the protocol:
as §1

The subject of assay [9] is LU-135 (Small Cell Lung Carcinoma). The assay is described as above. The essentials:
as §1

Assay [10] deals with ME-1 (Acute Myeloid Leukemia). The assay is described as above. A digest of the protocol: as §1
Assay [11] relates to NCI-H2085 (Non-Small Cell Lung Carcinoma). Described as above. The essentials:
as §1

In assay [12] the test system is SK-ES-1 (Ewing's Sarcoma). The description is as above. The essentials:
as §1

For another assay, the system named is 42-MG-BA (Glioblastoma). Nature of the assay: combination Emax (second highest fraction inhibited in the dose matrix, 72 h); higher = more inhibition; extreme values may be limits of the assay. The essentials: as §1
Assay [13] deals with EC-GI-10 (Esophageal Squamous Cell Carcinoma). The assay is described as above. The essentials:
as §1

Assay [14] relates to Hs-578-T (Breast Carcinoma). The description is as above. The essentials:
as §1

The test system of assay [15] is KP-1N (Pancreatic Carcinoma). The assay is described as above. A digest of the protocol: as §1
A further assay concerns T98G (Glioblastoma). The description is as above. A digest of the protocol: as §1
Assay [16] has as its system TE-15 (Esophageal Squamous Cell Carcinoma). Described as above. The essentials:
as §1
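For Bliss excess, mean over the matrix in this document: after 72 h of two-drug dosing.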

As to `Cn1cnc2c(F)c(Nc3ccc(Br)cc3Cl)c(C(=O)NOCCO)cc21` [Selumetinib] + CC(C)n1c(=O)n(C)c2cnc3cc(F)c(-c4ccc(OCCCN5CCCCC5)nc4)cc3c21 [AZD1390] (first compound max 10 µM, 7x7, partner max 0.3 µM), the Bliss excess in the assay on AGS (Gastric Carcinoma) was -0.0446; in [1], -0.0222; in [2], -0.0421; in assay [3], -0.023; in [4], -0.0401; in the assay with ES4 (Ewing's Sarcoma), -0.0515. In addition, the Bliss excess in assay [5] was -0.0029; in [6], -0.0416; in assay [7], -0.055; in [8], -0.0381; in assay [9], -0.0318; in [10] it was 0.0338. Further, the values for the Bliss excess in assay [11] and in assay [12] were -0.06 and -0.0246, respectively. The “combination Emax” value in the assay with 42-MG-BA (Glioblastoma) amounted to 0.185; in assay [13] it was 0.323; in assay [14] it was 0.369; in [15] it was 0.102; in the assay with T98G (Glioblastoma), 0.191; in assay [16], 0.409.
Take `Cn1cnc2c(F)c(Nc3ccc(Br)cc3Cl)c(C(=O)NOCCO)cc21` [Selumetinib] + CCN(CCO)CCCOc1ccc2c(Nc3cc(CC(=O)Nc4cccc(F)c4)[nH]n3)ncnc2c1 [AZD2811] (first compound max 10 µM, 7x7, partner max 1 µM): the Bliss excess in the assay with AGS (Gastric Carcinoma) was 0.11; in assay [1], 0.001; in [2] it was -0.029; in [3] it was -0.0353; in [4], -0.0098; in the assay with ES4 (Ewing's Sarcoma), -0.0398. Moreover, the Bliss excess in [5] was -0.0063; in [6], -0.0488; in [7] it was -0.0203; in assay [8], 0.0253; in assay [9], -0.0118; in [10], -0.0296. The results for the Bliss excess in [11] and in assay [12] were -0.0589 and -0.0272, respectively. The “combination Emax” value is 0.447 in the assay on 42-MG-BA (Glioblastoma); 0.546 in assay [13]; 0.491 in assay [14]; 0.135 in [15]; 0.226 with T98G (Glioblastoma); 0.492 in [16].
Regarding `COc1nnc2ccc(N3CCC(c4ccc(OCCN5CCN(C)C(=O)[C@H]5C)cc4)CC3)nn12` [AZD5153] + Cn1cnc2c(F)c(Nc3ccc(Br)cc3Cl)c(C(=O)NOCCO)cc21 [Selumetinib] (first compound max 1 µM, 7x7, partner max 10 µM), the Bliss excess in the assay with AGS (Gastric Carcinoma) is 0.0163; in [1] it was -0.0435; in assay [2] it was 0.0129; in assay [3], 0.0229; in [4] it was -0.0002; with ES4 (Ewing's Sarcoma), -0.0697. Moreover, the Bliss excess in assay [5] is -0.0233; in assay [6], 0.0081; in [7], -0.0242; in assay [8], -0.0583; in assay [9], -0.0138; in assay [10] it was -0.0302. Also, the Bliss excess in assay [11] is 0.027; in assay [12], -0.0188. Moreover, the “combination Emax” value in the assay on 42-MG-BA (Glioblastoma) amounted to 0.705; in [13], 0.526; in assay [14], 0.736; in [15], 0.563; in the assay with T98G (Glioblastoma) it was 0.476; in assay [16], 0.743.
Turning to `CC1(C)CCC(CN2CCN(c3ccc(C(=O)NS(=O)(=O)c4ccc(NCC5CCOCC5)c([N+](=O)[O-])c4)c(Oc4cnc5[nH]ccc5c4)c3)CC2)=C(c2ccc(Cl)cc2)C1` [Venetoclax] + CCN(CCO)CCCOc1ccc2c(Nc3cc(CC(=O)Nc4cccc(F)c4)[nH]n3)ncnc2c1 [AZD2811] (first compound max 1 µM, 7x7, partner max 1 µM), the Bliss excess in the assay with AGS (Gastric Carcinoma) was 0.0196; in assay [1], 0.0031; in assay [2], -0.0461; in assay [3], -0.0057; in assay [4], -0.0189; with ES4 (Ewing's Sarcoma), -0.029. For the same compound, the Bliss excess in assay [5] is 0.0137; in [6], -0.0605; in [7] it was -0.0237; in assay [8], -0.0706; in [9], -0.0099; in [10], -0.0118. Also, the Bliss excess is -0.0189 in assay [11] and 0.0156 in assay [12]. The “combination Emax” value in the assay with 42-MG-BA (Glioblastoma) was found to be 0.534; in assay [13] it was 0.308; in [14], 0.802; in [15] it was 0.162; in the assay on T98G (Glioblastoma), 0.394; in [16], 0.441.

For the origin of these results see the supplement of paper PMC11061612.
